The source of these data is publication PMC7180948, “New Insights into 4-Anilinoquinazolines as Inhibitors of Cardiac Troponin I–Interacting Kinase (TNNi3K)” (Molecules, 2020).

The target of one assay is STK36 (Homo sapiens, UniProt Q9NRP7). Put plainly: KINOMEscan at […], single concentration. In kind it is binding.
In a further assay the target is GAK (Homo sapiens, UniProt O14976). Briefly: KINOMEscan at […], single concentration. In kind it is binding.
The next assay concerns the target T1, ZAK (Homo sapiens, UniProt Q9NYL2).
T1 construct: gene MAP3K20
Put plainly: KINOMEscan at […], single concentration. It is filed as binding.

A further assay deals with T2, BRK (Homo sapiens, UniProt Q13882).
T2 construct: gene PTK6
Put plainly: biochemical. The conditions noted are these: read-out: 15 at 1 µM % inhibition. Details: KINOMEscan competition binding panel (Eurofins DiscoverX), single concentration, percent inhibition. The method, boiled down: (§1)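 Kinome-wide profiling (KINOMEscan, >400 human kinases) was run at 1 µM compound.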

The target in the next assay is MYO3B (Homo sapiens, UniProt Q8WXR4). Put plainly: biochemical. Details: KINOMEscan competition binding panel (Eurofins DiscoverX), single concentration, percent inhibition. The conditions noted are these: read-out: 15 at 1 µM % inhibition. The method, boiled down:
as §1

The target in another assay is T3, p38-gamma (Homo sapiens, UniProt P53778).
T3 construct: gene MAPK12
Put plainly: biochemical. As to conditions: read-out: 15 at 1 µM % inhibition. On the set-up: KINOMEscan competition binding panel (Eurofins DiscoverX), single concentration, percent inhibition. The method, boiled down:
as §1

The target in a further assay is NEK9 (Homo sapiens, UniProt Q8TD19). Put plainly: biochemical. On the set-up: KINOMEscan competition binding panel (Eurofins DiscoverX), single concentration, percent inhibition. As to conditions: read-out: 15 at 1 µM % inhibition. The method, boiled down: as §1
The target in another assay is CDK5 (Homo sapiens, UniProt Q00535). Briefly: biochemical. Details: KINOMEscan competition binding panel (Eurofins DiscoverX), single concentration, percent inhibition. The conditions noted are these: read-out: 15 at 1 µM % inhibition. The method, boiled down: as §1
The target in another assay is IRAK3 (Homo sapiens, UniProt Q9Y616). Put plainly: biochemical. As to conditions: read-out: 15 at 1 µM % inhibition. On the set-up: KINOMEscan competition binding panel (Eurofins DiscoverX), single concentration, percent inhibition. The method, boiled down: as §1
A further assay addresses T4, ARK5 (Homo sapiens, UniProt O60285).
T4 construct: gene NUAK1
Put plainly: biochemical. On the set-up: KINOMEscan competition binding panel (Eurofins DiscoverX), single concentration, percent inhibition. The conditions noted are these: read-out: 15 at 1 µM % inhibition. The method, boiled down:
as §1

For another assay, the target named is CDKL5 (Homo sapiens, UniProt O76039). Put plainly: biochemical. On the set-up: KINOMEscan competition binding panel (Eurofins DiscoverX), single concentration, percent inhibition. The conditions noted are these: read-out: 15 at 1 µM % inhibition. The method, boiled down: as §1
A further assay concerns the target LRRK2(G2019S) (Homo sapiens, UniProt Q5S007, G2019S). Briefly: biochemical. As to conditions: read-out: 15 at 1 µM % inhibition. On the set-up: KINOMEscan competition binding panel (Eurofins DiscoverX), single concentration, percent inhibition. The method, boiled down: as §1
The target of a further assay is PIK3CA(E545K) (Homo sapiens, UniProt P42336, E545K). Briefly: biochemical. Details: KINOMEscan competition binding panel (Eurofins DiscoverX), single concentration, percent inhibition. As to conditions: read-out: 15 at 1 µM % inhibition. The method, boiled down:
as §1

In a further assay the target is AKT2 (Homo sapiens, UniProt P31751). Put plainly: biochemical. Details: KINOMEscan competition binding panel (Eurofins DiscoverX), single concentration, percent inhibition. As to conditions: read-out: 15 at 1 µM % inhibition. The method, boiled down:
as §1

The next assay addresses KIT(D816V) (Homo sapiens, UniProt P10721, D816V). Briefly: biochemical. The conditions noted are these: read-out: 15 at 1 µM % inhibition. Details: KINOMEscan competition binding panel (Eurofins DiscoverX), single concentration, percent inhibition. The method, boiled down:
as §1

For another assay, the target named is GRK2 (Homo sapiens, UniProt P25098). Put plainly: biochemical. Details: KINOMEscan competition binding panel (Eurofins DiscoverX), single concentration, percent inhibition. As to conditions: read-out: 15 at 1 µM % inhibition. The method, boiled down:
as §1

The next assay concerns the target T5, ASK1 (Homo sapiens, UniProt Q99683).
T5 construct: gene MAP3K5
Briefly: biochemical. Details: KINOMEscan competition binding panel (Eurofins DiscoverX), single concentration, percent inhibition. The conditions noted are these: read-out: 15 at 1 µM % inhibition. The method, boiled down: as §1

The target of another assay is T6, VEGFR2 (Homo sapiens, UniProt P35968).
T6 construct: gene KDR
Briefly: biochemical. On the set-up: KINOMEscan competition binding panel (Eurofins DiscoverX), single concentration, percent inhibition. As to conditions: read-out: 15 at 1 µM % inhibition. The method, boiled down:
as §1

A further assay addresses ABL2 (Homo sapiens, UniProt P42684). Briefly: biochemical. As to conditions: read-out: 15 at 1 µM % inhibition. Details: KINOMEscan competition binding panel (Eurofins DiscoverX), single concentration, percent inhibition. The method, boiled down: as §1
The next assay addresses AKT1 (Homo sapiens, UniProt P31749). Briefly: biochemical. On the set-up: KINOMEscan competition binding panel (Eurofins DiscoverX), single concentration, percent inhibition. The conditions noted are these: read-out: 15 at 1 µM % inhibition. The method, boiled down: as §1
In a further assay the target is TNK1 (Homo sapiens, UniProt Q13470). Briefly: biochemical. Details: KINOMEscan competition binding panel (Eurofins DiscoverX), single concentration, percent inhibition. As to conditions: read-out: 15 at 1 µM % inhibition. The method, boiled down: as §1

Sequence of NEK9 (Q8TD19 whole entry): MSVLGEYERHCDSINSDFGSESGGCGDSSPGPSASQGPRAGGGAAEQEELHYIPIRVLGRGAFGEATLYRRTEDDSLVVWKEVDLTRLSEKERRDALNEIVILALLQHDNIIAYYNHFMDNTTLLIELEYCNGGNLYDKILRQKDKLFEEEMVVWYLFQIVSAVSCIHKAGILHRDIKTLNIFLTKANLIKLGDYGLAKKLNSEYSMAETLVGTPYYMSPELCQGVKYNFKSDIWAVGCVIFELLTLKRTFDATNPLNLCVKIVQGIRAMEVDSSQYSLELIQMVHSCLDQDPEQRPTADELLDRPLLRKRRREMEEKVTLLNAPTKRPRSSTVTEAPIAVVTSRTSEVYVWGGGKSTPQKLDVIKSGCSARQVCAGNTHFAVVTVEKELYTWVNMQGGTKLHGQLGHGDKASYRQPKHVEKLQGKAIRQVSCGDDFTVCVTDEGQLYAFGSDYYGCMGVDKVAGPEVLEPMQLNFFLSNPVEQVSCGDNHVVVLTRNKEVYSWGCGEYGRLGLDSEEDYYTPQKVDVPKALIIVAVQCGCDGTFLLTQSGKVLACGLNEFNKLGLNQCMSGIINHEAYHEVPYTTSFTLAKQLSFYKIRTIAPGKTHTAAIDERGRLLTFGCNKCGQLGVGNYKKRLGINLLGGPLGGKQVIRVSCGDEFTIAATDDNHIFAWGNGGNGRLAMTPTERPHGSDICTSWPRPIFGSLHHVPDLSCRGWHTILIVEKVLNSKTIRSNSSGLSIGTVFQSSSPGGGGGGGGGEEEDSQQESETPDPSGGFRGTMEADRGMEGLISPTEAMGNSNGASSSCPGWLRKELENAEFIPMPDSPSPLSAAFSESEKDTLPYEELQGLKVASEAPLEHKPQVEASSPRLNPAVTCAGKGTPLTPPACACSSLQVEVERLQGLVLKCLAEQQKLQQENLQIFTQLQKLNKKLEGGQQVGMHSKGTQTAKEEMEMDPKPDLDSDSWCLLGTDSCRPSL
Sequence of GAK (O14976 2-1311): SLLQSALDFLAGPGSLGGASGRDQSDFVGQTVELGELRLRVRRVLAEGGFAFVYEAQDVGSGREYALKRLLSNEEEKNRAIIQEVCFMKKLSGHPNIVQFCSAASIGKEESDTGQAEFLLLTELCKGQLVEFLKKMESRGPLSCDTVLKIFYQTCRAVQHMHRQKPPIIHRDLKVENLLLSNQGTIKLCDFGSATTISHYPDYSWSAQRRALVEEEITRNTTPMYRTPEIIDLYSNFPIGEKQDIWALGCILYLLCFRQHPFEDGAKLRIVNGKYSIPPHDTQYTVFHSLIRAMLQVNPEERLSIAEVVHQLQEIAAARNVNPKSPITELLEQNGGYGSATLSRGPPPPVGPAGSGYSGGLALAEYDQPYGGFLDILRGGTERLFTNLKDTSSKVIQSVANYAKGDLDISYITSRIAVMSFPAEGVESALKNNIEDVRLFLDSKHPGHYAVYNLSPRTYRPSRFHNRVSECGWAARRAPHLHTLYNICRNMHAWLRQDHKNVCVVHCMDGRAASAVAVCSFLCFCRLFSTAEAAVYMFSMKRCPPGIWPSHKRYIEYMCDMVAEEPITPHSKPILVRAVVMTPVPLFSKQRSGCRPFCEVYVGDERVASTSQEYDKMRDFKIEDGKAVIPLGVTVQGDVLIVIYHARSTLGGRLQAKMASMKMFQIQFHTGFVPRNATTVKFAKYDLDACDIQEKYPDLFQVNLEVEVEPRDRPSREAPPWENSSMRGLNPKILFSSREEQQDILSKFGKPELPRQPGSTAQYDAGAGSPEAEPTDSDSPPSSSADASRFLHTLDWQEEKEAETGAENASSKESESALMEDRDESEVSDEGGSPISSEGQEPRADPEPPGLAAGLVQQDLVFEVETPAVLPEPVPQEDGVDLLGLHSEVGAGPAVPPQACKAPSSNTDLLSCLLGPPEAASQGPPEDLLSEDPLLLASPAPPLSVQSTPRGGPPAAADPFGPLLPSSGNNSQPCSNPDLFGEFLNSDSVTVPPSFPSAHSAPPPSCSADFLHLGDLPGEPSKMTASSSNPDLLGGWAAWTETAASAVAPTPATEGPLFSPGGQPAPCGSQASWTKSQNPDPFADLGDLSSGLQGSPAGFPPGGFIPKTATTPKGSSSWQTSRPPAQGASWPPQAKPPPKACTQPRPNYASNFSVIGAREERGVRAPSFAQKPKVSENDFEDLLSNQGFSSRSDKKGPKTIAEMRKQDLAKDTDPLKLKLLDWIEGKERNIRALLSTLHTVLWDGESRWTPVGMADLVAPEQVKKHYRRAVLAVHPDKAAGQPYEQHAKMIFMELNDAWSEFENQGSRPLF
Sequence of GRK2 (P25098 whole entry): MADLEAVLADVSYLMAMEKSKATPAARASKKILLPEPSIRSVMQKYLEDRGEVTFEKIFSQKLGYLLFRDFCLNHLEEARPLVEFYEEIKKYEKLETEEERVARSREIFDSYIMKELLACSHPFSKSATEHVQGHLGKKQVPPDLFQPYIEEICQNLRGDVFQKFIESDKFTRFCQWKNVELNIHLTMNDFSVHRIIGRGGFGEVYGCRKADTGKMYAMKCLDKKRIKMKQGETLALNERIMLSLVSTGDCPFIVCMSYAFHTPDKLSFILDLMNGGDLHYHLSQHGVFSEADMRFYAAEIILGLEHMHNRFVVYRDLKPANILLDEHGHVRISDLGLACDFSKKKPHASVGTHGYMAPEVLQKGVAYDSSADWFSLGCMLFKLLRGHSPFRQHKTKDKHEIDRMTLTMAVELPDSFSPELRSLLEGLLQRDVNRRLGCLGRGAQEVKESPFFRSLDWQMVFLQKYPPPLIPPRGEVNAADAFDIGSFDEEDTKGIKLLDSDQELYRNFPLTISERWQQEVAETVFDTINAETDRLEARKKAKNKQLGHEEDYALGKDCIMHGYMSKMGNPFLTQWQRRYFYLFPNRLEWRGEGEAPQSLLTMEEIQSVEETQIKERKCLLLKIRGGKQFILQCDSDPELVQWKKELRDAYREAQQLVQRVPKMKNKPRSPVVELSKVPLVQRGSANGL
Sequence of CDK5 (Q00535 whole entry): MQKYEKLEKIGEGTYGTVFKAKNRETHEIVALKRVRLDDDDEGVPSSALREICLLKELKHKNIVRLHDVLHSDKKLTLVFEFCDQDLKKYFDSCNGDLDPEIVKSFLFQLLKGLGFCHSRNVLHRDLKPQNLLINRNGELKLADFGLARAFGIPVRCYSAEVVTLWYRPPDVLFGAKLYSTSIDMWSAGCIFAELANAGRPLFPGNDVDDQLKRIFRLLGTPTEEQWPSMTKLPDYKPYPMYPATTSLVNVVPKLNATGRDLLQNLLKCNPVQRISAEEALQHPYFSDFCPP
Sequence of ABL2 (P42684 whole entry): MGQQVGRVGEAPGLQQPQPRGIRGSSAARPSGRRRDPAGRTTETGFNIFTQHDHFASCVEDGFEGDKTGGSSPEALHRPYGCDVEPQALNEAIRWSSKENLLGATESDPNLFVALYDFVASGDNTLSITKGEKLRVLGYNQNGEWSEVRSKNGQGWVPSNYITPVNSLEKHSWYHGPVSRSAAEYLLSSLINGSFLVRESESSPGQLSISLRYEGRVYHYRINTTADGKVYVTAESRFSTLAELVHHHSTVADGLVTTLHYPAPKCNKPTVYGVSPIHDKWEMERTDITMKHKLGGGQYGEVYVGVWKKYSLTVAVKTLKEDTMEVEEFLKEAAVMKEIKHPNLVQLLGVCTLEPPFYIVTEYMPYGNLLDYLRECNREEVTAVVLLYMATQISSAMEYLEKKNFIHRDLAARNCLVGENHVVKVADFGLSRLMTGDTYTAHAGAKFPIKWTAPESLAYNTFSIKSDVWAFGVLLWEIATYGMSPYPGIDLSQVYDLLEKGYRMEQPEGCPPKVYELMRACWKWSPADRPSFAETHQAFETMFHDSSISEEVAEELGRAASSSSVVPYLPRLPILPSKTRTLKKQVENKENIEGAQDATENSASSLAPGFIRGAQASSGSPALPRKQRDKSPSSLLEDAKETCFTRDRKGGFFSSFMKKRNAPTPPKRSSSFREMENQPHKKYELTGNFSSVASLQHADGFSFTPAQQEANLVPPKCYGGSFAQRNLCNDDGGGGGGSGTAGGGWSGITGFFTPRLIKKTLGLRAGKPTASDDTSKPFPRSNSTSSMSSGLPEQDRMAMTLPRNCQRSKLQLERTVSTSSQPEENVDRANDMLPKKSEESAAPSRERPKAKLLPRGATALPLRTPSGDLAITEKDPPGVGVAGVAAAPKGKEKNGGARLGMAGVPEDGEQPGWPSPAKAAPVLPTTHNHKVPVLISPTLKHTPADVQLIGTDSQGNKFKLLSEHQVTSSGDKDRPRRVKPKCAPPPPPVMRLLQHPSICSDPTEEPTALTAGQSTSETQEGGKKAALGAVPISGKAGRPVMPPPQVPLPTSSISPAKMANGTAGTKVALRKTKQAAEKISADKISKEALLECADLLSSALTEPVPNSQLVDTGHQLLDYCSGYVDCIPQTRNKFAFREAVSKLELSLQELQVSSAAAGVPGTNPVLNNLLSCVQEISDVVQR
T2 sequence (Q13882 whole entry): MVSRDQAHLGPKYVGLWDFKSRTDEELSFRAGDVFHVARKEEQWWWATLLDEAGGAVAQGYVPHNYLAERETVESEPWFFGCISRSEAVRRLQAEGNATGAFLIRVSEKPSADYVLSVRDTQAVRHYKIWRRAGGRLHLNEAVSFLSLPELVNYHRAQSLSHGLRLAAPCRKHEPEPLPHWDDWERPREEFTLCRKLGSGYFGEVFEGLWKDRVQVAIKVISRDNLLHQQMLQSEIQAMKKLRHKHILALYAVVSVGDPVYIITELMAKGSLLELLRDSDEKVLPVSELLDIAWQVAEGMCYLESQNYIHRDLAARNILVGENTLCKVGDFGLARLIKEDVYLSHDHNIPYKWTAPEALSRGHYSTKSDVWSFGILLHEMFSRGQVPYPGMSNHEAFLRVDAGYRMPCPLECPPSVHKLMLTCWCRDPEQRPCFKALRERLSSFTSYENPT

As to `CNS(=O)(=O)c1ccc(N(C)C)c(Nc2ncnc3cc(OC)c(OC)cc23)c1` [compound 7, 3-((6,7-dimethoxyquinazolin-4-yl)amino)-4-(dimethylamino)-N-methylbenzenesulfonamide], the inhibition at 1 µM was found to be 94% against STK36, 92% against GAK and 93% on ZAK.
For `CNS(=O)(=O)c1ccc(N(C)C)c(Nc2nc(C)nc3cc(OC)c(OC)cc23)c1` [compound 15, 3-((6,7-dimethoxy-2-methylquinazolin-4-yl)amino)-4-(dimethylamino)-N-methylbenzenesulfonamide], the inhibition at 1 µM on BRK was determined as 0%; on MYO3B it was 15%; at p38-gamma, 17%; at NEK9, 0%; on CDK5, 3%; at IRAK3, 3%. The inhibition at 1 µM was 0% at ARK5; 19% at CDKL5; 8% on LRRK2(G2019S); 21% at PIK3CA(E545K); 0% on AKT2; 4% on KIT(D816V). The inhibition at 1 µM at GRK2 was determined as 10%; on ASK1, 0%; at VEGFR2, 12%; on ABL2 it was 0%; at AKT1, 0%; on TNK1, 35%.

By inhibition is commonly meant the relative decrease from the control value, in per cent.
